Molecular target: MTH1 (Homo sapiens, UniProt P36639)
Assay: MTH1 enzymatic assay and IC50 value determination (malachite green)
Format: biochemical
Conditions: MTH1 4.8 nM, dGTP 100 μM, 15 minutes at 22° C.
Procedure, shortened: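 Malachite green detection of Pi after coupling dGTP hydrolysis to excess E. coli pyrophosphatase; 4.8 nM MTH1, 100 μM dGTP in Tris-acetate buffer with Mg2+ and DTT, 1% DMSO, 15 min at 22 °C. 12-point 1:3 compound series; absorbance at 630 nm; IC50 by four-parameter nonlinear regression.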

SMILES	IC50 (group: less than 200 nM) [µM]	IC50 (group: between 2 μM and 10 μM) [µM]
Cc1cccc(-c2cc(NC3CC3c3ccc(Cl)cc3)nc(N)n2)c1C (centres unmarked) [Example 267, 4-N-[2-(4-chlorophenyl)cyclopropyl]-6-(2,3-dimethylphenyl)pyrimidine-2,4-diamine]	< 0.2	–
COc1ccc(C(CNc2cc(-c3cccc(C)c3C)nc(N)n2)N2CCCC2)cc1 (centres unmarked) [Example 345, 6-(2,3-Dimethylphenyl)-4-N-[2-(4-methoxyphenyl)-2-(pyrrolidin-1-yl)ethyl]pyrimidine-2,4-diamine]	–	2 to 10

Source: US10174029B2, “Pyrimidine-2,4-diamine derivatives for treatment of cancer” (THOMAS HELLEDAYS STIFTELSE FOR MEDICINSK FORSKNING, priority 2012, dated 2019)
